Test results: patent publication US20230203060A1 (GENFLEET THERAPEUTICS (SHANGHAI) INC., priority 2020, published 2023)
pIC50: −log10 of the molar value.

Columns and labels:
[1] = tested on: phosphorylated ERK downstream of KRAS G12C in MIA PaCa2 cells; experiment: Cell p-ERK detection experiment (HTRF) in MIA PaCa2; assay type: cell-based, human; settings: Homo sapiens, MIA PaCa-2, 2 h, MIA PaCa2 cells, 2 hours with compound, Advance ERK phospho-T202/Y204 HTRF kit; read-out: p-ERK IC50
Method in brief: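 KRAS G12C-mutant MIA PaCa2 cells (2.5E4 per well, overnight) exposed 2 h to a 3.16-fold compound dilution series at 0.1% DMSO. Lysates probed 4 h with HTRF antibodies to ERK phospho-T202/Y204; inhibition versus DMSO control and blank, IC50 by four-parameter fit.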

[2] = target: T1, KRAS G12C (Homo sapiens, UniProt P01116, G12C); experiment: KRAS G12C NEA-HTRF experiment (SOS1-catalyzed displacement of GDP by GTP); assay type: biochemical
T1 construct: purchased Reactionbiology
Method in brief: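 His-tagged KRAS G12C preloaded with DY647-GDP was preincubated 15 min at 20 °C with compound, then exchanged with SOS1 (0.2 μM working solution) and GTP (200 μM working solution) for 2 h at 20 °C in the dark. HTRF 665/615 nm ratio with anti-His-Tb was normalised to T0 and no-compound controls; IC50 by four-parameter fit.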

T1 sequence (P01116 1-188 isoform P01116-2 G12C): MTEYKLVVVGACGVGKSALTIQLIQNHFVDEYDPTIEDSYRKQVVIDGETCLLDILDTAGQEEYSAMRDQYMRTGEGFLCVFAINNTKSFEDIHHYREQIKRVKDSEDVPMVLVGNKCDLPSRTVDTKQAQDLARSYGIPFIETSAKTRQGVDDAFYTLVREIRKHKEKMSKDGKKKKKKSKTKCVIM

| Compound | pIC50 [1] | pIC50 [2] |
| --- | --- | --- |
| C=CC(=O)N1CCN2C(=O)c3c(N4CC(O)CC4(C)C)nc(-c4ccccc4Cl)c(F)c3OC[C@H]2C1 (stereo partly drawn) [Z414-1, (6aR)-8-acryloyl-3-(2-chlorophenyl)-4-fluoro-1-(4-hydroxy-2,2-dimethylpyrrolidin-1-yl)-6,6a,7,8,9,10-hexahydro-12H-pyrazino[2,1-c]pyrido[3,4-f][1,4]oxazepin-12-one] | 6.99 | 7.06 |
| C=CC(=O)N1CCN2C(=O)c3c(N4CCC[C@@H]4C)nc(-c4c(O)cccc4F)c(Cl)c3OC[C@H]2C1 [Z49, (6aR)-8-acryloyl-1-((S)-2-methylpyrrolidin-1-yl)-4-chloro-3-(2-fluoro-6-hydroxyphenyl)-6,6a,7,8,9,10-hexahydro-12H-pyrazino[2,1-c]pyrido[3,4-f][1,4]oxazepin-12-one] | 7.21 | 7.18 |
| C=CC(=O)N1CCN2C(=O)c3c(N4C[C@H](N5CC(F)(F)C5)CC4(C)C)nc(-c4ccccc4F)c(Cl)c3OC[C@H]2C1 (single isomer, unassigned) [Z525-1] | 5.89 | 6.44 |
| C=CC(=O)N1CCN2C(=O)c3c(OC4CCCN(C)C4)nc(-c4c(O)cccc4F)c(Cl)c3OC[C@H]2C1 (stereo partly drawn) [Z43, (6aR)-8-acryloyl-4-chloro-3-(2-fluoro-6-hydroxyphenyl)-1-((1-methylpiperidin-3-yl)oxy)-6,6a,7,8,9,10-hexahydro-12H-pyrazino[2,1-c]pyrido[3,4-f][1,4]oxazepin-12-one] |  | 6.77 |
| C=CC(=O)N1CCN2C(=O)c3c(N4C[C@H](N5CCN(C)CC5)CC4(C)C)nc(-c4c(F)cccc4Cl)c(Cl)c3OC[C@H]2C1 (single isomer, unassigned) [Z635-2] | 7.26 | 6.95 |
| C=CC(=O)N1CCN2C(=O)c3c(N4C[C@@H](N5CCC5)CC4(C)C)nc(-c4ccccc4F)c(Cl)c3OC[C@H]2C1 (single isomer, unassigned) [Z471-1] | 6.73 | 7.14 |
| C=CC(=O)N1CCN2C(=O)c3c(N4C[C@@H](C(=O)O)CC4(C)C)nc(-c4c(O)cccc4F)c(Cl)c3OC[C@H]2C1 (single isomer, unassigned) [Z458-1] | 5.45 | 8.06 |
| C=CC(=O)N1CCN2C(=O)c3c(N4C[C@@H](N(C)CCF)CC4(C)C)nc(-c4ccccc4F)c(Cl)c3OC[C@H]2C1 (single isomer, unassigned) [Z660-1] | 7.72 | 7.95 |
| C=CC(=O)N1CCN2C(=O)c3c(N4C[C@@H](C)N(C)C[C@@H]4C)nc(-c4ccccc4F)c(Cl)c3OC[C@H]2C1 [Z464] | 6.28 | 5.71 |
| C=CC(=O)N1CCN2C(=O)c3c(N4CC(N5CCN(C)CC5)CC4(C)C)nc(-c4ccccc4F)c(F)c3OC[C@H]2C1 (stereo partly drawn) [Z474, (6aR)-8-acryloyl-1-(2,2-dimethyl-4-(4-methylpiperazin-1-yl)pyrrolidin-1-yl)-4-fluoro-3-(2-fluorophenyl)-6,6a,7,8,9,10-hexahydro-12H-pyrazino[2,1-c]pyrido[3,4-f][1,4]oxazepin-12-one] | 7.05 | 6.98 |
| C=CC(=O)N1CCN2C(=O)c3c(N4C[C@@H](NCC(F)(F)F)CC4(C)C)nc(-c4ccccc4F)c(Cl)c3OC[C@H]2C1 (single isomer, unassigned) [Z662-1] | 7.49 | 7.63 |
| C=CC(=O)N1CCN2C(=O)c3c(N4C[C@@H](N(C)CC(F)(F)F)CC4(C)C)nc(-c4ccccc4F)c(Cl)c3OC[C@H]2C1 (single isomer, unassigned) [Z491] | 7.57 | 7.82 |
| C=CC(=O)N1CCN2C(=O)c3c(N4CCC(OC)C4(C)C)nc(-c4c(N)cccc4F)c(Cl)c3OC[C@H]2C1 (stereo partly drawn) [Z506, (6aR)-8-acryloyl-3-(2-amino-6-fluorophenyl)-4-chloro-1-(3-methoxy-2,2-dimethylpyrrolidin-1-yl)-6,6a,7,8,9,10-hexahydro-12H-pyrazino[2,1-c]pyrido[3,4-f][1,4]oxazepin-12-one] | 7.96 | 7.74 |
| C=CC(=O)N1CCN2C(=O)c3c(N4CCC5CC54)nc(-c4c(O)cccc4F)c(Cl)c3OC[C@H]2C1 (stereo partly drawn) [Z39, (6aR)-8-acryloyl-1-(2-azabicyclo[3.1.0]hexart-2-yl)-4-chloro-3-(2-fluoro-6-hydroxyphenyl)-6,6a,7,8,9,10-hexahydro-12H-pyrazino[2,1-c]pyrido[3,4-f][1,4]oxazepin-12-one] | 6.85 |  |
| C=CC(=O)N1CCN2C(=O)c3c(N4CCC[C@H]4C)nc(-c4c(O)cccc4F)c(Cl)c3OC[C@H]2C1 [Z48, (6aR)-8-acryloyl-1-((R)-2-methylpyrrolidin-1-yl)-4-chloro-3-(2-fluoro-6-hydroxyphenyl)-6,6a,7,8,9,10-hexahydro-12H-pyrazino[2,1-c]pyrido[3,4-f][1,4]oxazepin-12-one] |  | 6.82 |
| C=CC(=O)N1CCN2C(=O)c3c(N4CCN(C)C[C@@H]4C)nc(-c4c(F)cccc4Cl)c(Cl)c3OC[C@H]2C1 [Z547, (6aR)-8-acryloyl-4-chloro-3-(2-chloro-6-fluorophenyl)-1-((S)-2,4-dimethylpiperazin-1-yl)-6,6a,7,8,9,10-hexahydro-12H-pyrazino[2,1-c]pyrido[3,4-f][1,4]oxazepin-12-one] | 6.87 | 6.86 |
| C=CC(=O)N1CCN2C(=O)c3c(N4C[C@@H](N5CCN(C)CC5)CC4(C)C)nc(-c4ccccc4F)c(F)c3OC[C@H]2C1 (single isomer, unassigned) [Z474-1] | 7.19 | 7.05 |
| C=CC(=O)N1CCN2C(=O)c3c(N4CCN(C)C[C@@H]4C)nc(-c4ccccc4F)c(Cl)c3OC[C@H]2C1 [Z407-1, (R)-8-acryloyl-4-chloro-1-((S)-2,4-dimethylpiperazin-1-yl)-3-(2-fluorophenyl)-6,6a,7,8,9,10-hexahydro-12H-pyrazino[2,1-c]pyrido[3,4-f][1,4]oxazepin-12-one] | 6.84 | 6.58 |
| C=CC(=O)N1CCN2C(=O)c3c(N[C@H](C)c4ccccc4)nc(-c4c(O)cccc4F)c(Cl)c3OC[C@H]2C1 [Z28, (6aR)-8-acryloyl-4-chloro-3-(2-fluoro-6-hydroxyphenyl)-1-(((R)-1-phenylethyl)amino)-6,6a,7,8,9,10-hexahydro-12H-pyrazino[2,1-c]pyrido[3,4-f][1,4]oxazepin-12-one] |  | 6.95 |
| C=CC(=O)N1CCN2C(=O)c3c(N4CCN(C)C[C@@H]4C)nc(-c4ccccc4Cl)c(Cl)c3OC[C@H]2C1 [Z461, (R)-8-acryloyl-4-chloro-3-(2-chlorophenyl)-1-((S)-2,4-dimethylpiperazin-1-yl)-6,6a,7,8,9,10-hexahydro-12H-pyrazino[2,1-c]pyrido[3,4-f][1,4]oxazepin-12-one] |  | 6.48 |
| C=CC(=O)N1CCN2C(=O)c3c(NC45CC(C4)C5)nc(-c4c(O)cccc4F)c(Cl)c3OC[C@H]2C1 [Z41, (6aR)-8-acryloyl-1-(bicyclo [1.1.1]pentan-1-ylamino)-4-chloro-3-(2-fluoro-6-hydroxyphenyl)-6,6a,7,8,9,10-hexahydro-12H-pyrazino[2,1-c]pyrido[3,4-f][1,4]oxazepin-12-one] | 6.49 |  |
| C=CC(=O)N1CCN2C(=O)c3c(N4CCN(C)C[C@@H]4C)nc(C#CC)c(Cl)c3OC[C@H]2C1 [Z459, (R)-8-acryloyl-4-chloro-1-((S)-2,4-dimethylpiperazin-1-yl)-3-(prop-1-yn-1-yl)-6,6a,7,8,9,10-hexahydro-12H-pyrazino[2,1-c]pyrido[3,4-f][1,4]oxazepin-12-one] |  | 5.03 |
